# Data: patent publication US20170368082A1, “FORMULATIONS OF BRINCIDOFOVIR” (priority 2016, published 2017)
# Like-named read-outs stand apart in the source and are kept apart here.
# Assay: Phase 2 toxicokinetics of brincidofovir and cidofovir in plasma
# Format: in vivo, Sprague-Dawley CD rats
# Details: for Tmax: Sprague-Dawley CD, rat, plasma, iv, read-out: Median Tmax; for AUClast/Dose / Cmax/Dose / Tlast: brincidofovir in plasma, 1 mg/kg 2-hour IV infusion, Female rats
# Experimental: Plasma samples (108) were collected 2 hours following the initiation of dosing on Day 1 and Day 7 (Group 1), or at 1, 2, 8, and 24 hours following the initiation of dosing on Day 1, and prior to administration and at 2, 8, and 24 hours following the initiation of dosing on Day 7 (Groups 2 and 3), and analyzed to determine the concentrations of brincidofovir and the metabolite, cidofovir), by LC/MS/MS.
# Approximately 0.4 mL of whole blood was obtained via the tail vein from each animal at each time point. Animals were not fasted prior to blood collection. Blood was collected into tubes containing K2EDTA anticoagulant and placed on wet ice in an upright position, per facility SOP prior to processing. Plasma was separated by centrifugation (10 minutes at approximately 2000 g, at approximately 2-8° C.). Approximately 0.10 mL of plasma was transferred into a single cryotube appropriately labeled with study number, animal number, time point, date of sampling and sample type. Remaining plasma was transferred into a second cryotube and retained as a backup sample. Plasma frozen at approximately −80±10° C. within approximately 2 hours after collection of each blood sample until analysis. Animals were euthanized (CO2 inhalation) after the final blood collection.
# In general, TK parameters were estimated using mean plasma concentrations of brincidofovir and cidofovir derived from the composite blood sampling design using Phoenix WinNonLin (V 6.3).
# A composite blood sampling design was used such that each rat was sampled twice per sampling day. Blood was collected via tail vein from unanesthetized animals into tubes containing anticoagulant and placed on wet ice in an upright position. Animals were not fasted prior to blood collection. Plasma was separated by centrifugation (for 10 minutes at approximately 2000 g, at approximately 2-8° C.), and transferred into individually labeled cryotubes. All cryotubes containing the collected plasma samples were appropriately labeled as to study number, animal number, time point, date of sampling and sample type. All plasma samples were obtained and frozen at approximately −80° C. (±10° C.) within approximately 2 hours after collection of each blood sample until analysis.
# Rat plasma bioanalysis was conducted by Pyxant Laboratories. Plasma samples were analyzed for concentrations of brincidofovir and cidofovir using a method based upon protein precipitation extraction followed by LC-MS/MS analysis; calibration ranges for brincidofovir and cidofovir were 1.00-1500 ng/mL and 5.00-750 ng/mL, respectively, (Pyxant study number 3025) for a 50 μL aliquot of rat plasma. Sample analysis for ISR was not performed as part of this non-GLP study.
# For the generation of Mean Profiles, all sample concentrations that were below the limit of quantitation (BLQ) were set to 0.
# All pharmacokinetic parameter estimates were completed using a Non-Compartmental Model (Model 200-202 for IV infusion administration). The AUClast and AUCinf were calculated using the linear up log down trapezoidal rule.
# [1] = brincidofovir 1 mg/kg, Male, Day 1, 1 h
# [2] = brincidofovir 1 mg/kg, Male, Day 1, 2 h
# [3] = brincidofovir 1 mg/kg, Male, Day 7, 0 h
# [4] = brincidofovir 1 mg/kg, Male, Day 7, 2 h
# [5] = brincidofovir 15 mg/kg, Female, Day 1, 1 h
# [6] = brincidofovir 15 mg/kg, Female, Day 1, 2 h
# [7] = brincidofovir 15 mg/kg, Female, Day 1, 8 h
# [8] = brincidofovir 15 mg/kg, Female, Day 1, 24 h
# [9] = brincidofovir 15 mg/kg, Female, Day 7, 0 h
# [10] = brincidofovir 15 mg/kg, Female, Day 7, 2 h
# [11] = brincidofovir 15 mg/kg, Female, Day 7, 8 h
# [12] = brincidofovir 15 mg/kg, Female, Day 7, 24 h
# [13] = brincidofovir 15 mg/kg, Male, Day 1, 1 h
# [14] = brincidofovir 15 mg/kg, Male, Day 1, 2 h
# [15] = brincidofovir 15 mg/kg, Male, Day 1, 8 h
# [16] = brincidofovir 15 mg/kg, Male, Day 7, 0 h
# [17] = brincidofovir 15 mg/kg, Male, Day 7, 2 h
smiles,measurement,setting,value
CCCCCCCCCCCCCCCCOCCCOP(=O)(O)CO[C@H](CO)Cn1ccc(N)nc1=O [Brincidofovir],Difference in Cmax between female and male,"1 or 15 mg/kg, Days 1 and 7",≤ 54%
same,Tmax,"1 mg/kg, single and twice weekly 1 mg/kg",2 h
same,Tmax,"15 mg/kg, single 15 mg/kg",1 h
same,Tmax,"15 mg/kg, twice weekly 15 mg/kg",2 h
same,brincidofovir Mean Concentration (MC),"brincidofovir 1 mg/kg, Female, Day 7, 24 h",0.00 ng/mL
same,brincidofovir Imputed Mean Concentration (IMC),[1],227 ng/mL
same,brincidofovir Mean Concentration (MC),[1],227 ng/mL
same,brincidofovir Imputed Mean Concentration (IMC),[2],235 ng/mL
same,brincidofovir Mean Concentration (MC),[2],235 ng/mL
same,brincidofovir Mean Concentration (MC),"brincidofovir 1 mg/kg, Male, Day 1, 8 h",0.00 ng/mL
same,brincidofovir Mean Concentration (MC),"brincidofovir 1 mg/kg, Male, Day 1, 24 h",0.00 ng/mL
same,brincidofovir Imputed Mean Concentration (IMC),[3],0.00 ng/mL
same,brincidofovir Mean Concentration (MC),[3],0.00 ng/mL
same,brincidofovir Imputed Mean Concentration (IMC),[4],208 ng/mL
same,brincidofovir Mean Concentration (MC),[4],208 ng/mL
same,brincidofovir Mean Concentration (MC),"brincidofovir 1 mg/kg, Male, Day 7, 8 h",0.00 ng/mL
same,brincidofovir Mean Concentration (MC),"brincidofovir 1 mg/kg, Male, Day 7, 24 h",0.00 ng/mL
same,brincidofovir Imputed Mean Concentration (IMC),[5],3470 ng/mL
same,brincidofovir Mean Concentration (MC),[5],3470 ng/mL
same,brincidofovir Imputed Mean Concentration (IMC),[6],2570 ng/mL
same,brincidofovir Mean Concentration (MC),[6],2570 ng/mL
same,brincidofovir Imputed Mean Concentration (IMC),[7],6.53 ng/mL
same,brincidofovir Mean Concentration (MC),[7],6.53 ng/mL
same,brincidofovir Imputed Mean Concentration (IMC),[8],2.02 ng/mL
same,brincidofovir Mean Concentration (MC),[8],2.02 ng/mL
same,brincidofovir Imputed Mean Concentration (IMC),[9],0.00 ng/mL
same,brincidofovir Mean Concentration (MC),[9],0.00 ng/mL
same,brincidofovir Imputed Mean Concentration (IMC),[10],1660 ng/mL
same,brincidofovir Mean Concentration (MC),[10],1660 ng/mL
same,brincidofovir Imputed Mean Concentration (IMC),[11],5.45 ng/mL
same,brincidofovir Mean Concentration (MC),[11],5.45 ng/mL
same,brincidofovir Imputed Mean Concentration (IMC),[12],0.790 ng/mL
same,brincidofovir Mean Concentration (MC),[12],0.790 ng/mL
same,brincidofovir Imputed Mean Concentration (IMC),[13],4370 ng/mL
same,brincidofovir Mean Concentration (MC),[13],4370 ng/mL
same,brincidofovir Imputed Mean Concentration (IMC),[14],2840 ng/mL
same,brincidofovir Mean Concentration (MC),[14],2840 ng/mL
same,brincidofovir Imputed Mean Concentration (IMC),[15],9.59 ng/mL
same,brincidofovir Mean Concentration (MC),[15],9.59 ng/mL
same,brincidofovir Imputed Mean Concentration (IMC),[16],0.00 ng/mL
same,brincidofovir Mean Concentration (MC),[16],0.00 ng/mL
same,brincidofovir Imputed Mean Concentration (IMC),[17],1910 ng/mL
same,brincidofovir Mean Concentration (MC),[17],1910 ng/mL
same,brincidofovir Mean Concentration (MC),"brincidofovir 15 mg/kg, Male, Day 7, 8 h",8.72 ng/mL
same,AUClast/Dose,Day 1,459 (h*ng/mL)/(mg/kg)
same,Cmax/Dose,Day 1,191 (ng/mL)/(mg/kg)
same,Tlast,Day 1,8 h
same,AUClast/Dose,Day 7,244 (h*ng/mL)/(mg/kg)
same,Cmax/Dose,Day 7,95.4 (ng/mL)/(mg/kg)
same,Tlast,Day 7,8 h
